The text below walks through data of paper PMC7918793, “5-Methoxybenzothiophene-2-Carboxamides as Inhibitors of Clk1/4: Optimization of Selectivity and Cellular Potency” (Molecules, 2021).

SMILES strings stand for the structures.

Holding throughout (experiment): SelectScreen kinase profiling
Format in all cases: biochemical

One assay addresses PIM1 (Homo sapiens, UniProt P11309). The protocol:
(§1) Active human Clk1 and Clk2 were purchased from Life Technologies (Catalog No. PV3315 and PV4279, respectively). RS repeat substrate peptide for Clk1 ([…]) was custom synthesized at the Department of Medical Biochemistry and Molecular Biology, Saarland University, Homburg, Germany. Kinase Inhibition assays for Clk1 and Clk2 were performed as described previously, in the presence of 15 μM ATP [20]. The calculated IC50 values are representative of at least two independent determinations performed in duplicates. The larger panel of kinases shown in Table 4 was screened by the SelectScreen Kinase Profiling Service, Thermo Fisher Scientific, Paisley, UK.

The target of the next assay is MLCK2 (Homo sapiens, UniProt Q9H1R3). As to the method: as §1
The next assay concerns the target Clk1 (Homo sapiens, UniProt P49759). The protocol: as §1
In another assay the target is CK1 γ2 (Homo sapiens, UniProt P78368). The protocol:
as §1

Another assay deals with T1, Haspin (Homo sapiens, UniProt Q8TF76).
T1 sequence (Q8TF76 1-798): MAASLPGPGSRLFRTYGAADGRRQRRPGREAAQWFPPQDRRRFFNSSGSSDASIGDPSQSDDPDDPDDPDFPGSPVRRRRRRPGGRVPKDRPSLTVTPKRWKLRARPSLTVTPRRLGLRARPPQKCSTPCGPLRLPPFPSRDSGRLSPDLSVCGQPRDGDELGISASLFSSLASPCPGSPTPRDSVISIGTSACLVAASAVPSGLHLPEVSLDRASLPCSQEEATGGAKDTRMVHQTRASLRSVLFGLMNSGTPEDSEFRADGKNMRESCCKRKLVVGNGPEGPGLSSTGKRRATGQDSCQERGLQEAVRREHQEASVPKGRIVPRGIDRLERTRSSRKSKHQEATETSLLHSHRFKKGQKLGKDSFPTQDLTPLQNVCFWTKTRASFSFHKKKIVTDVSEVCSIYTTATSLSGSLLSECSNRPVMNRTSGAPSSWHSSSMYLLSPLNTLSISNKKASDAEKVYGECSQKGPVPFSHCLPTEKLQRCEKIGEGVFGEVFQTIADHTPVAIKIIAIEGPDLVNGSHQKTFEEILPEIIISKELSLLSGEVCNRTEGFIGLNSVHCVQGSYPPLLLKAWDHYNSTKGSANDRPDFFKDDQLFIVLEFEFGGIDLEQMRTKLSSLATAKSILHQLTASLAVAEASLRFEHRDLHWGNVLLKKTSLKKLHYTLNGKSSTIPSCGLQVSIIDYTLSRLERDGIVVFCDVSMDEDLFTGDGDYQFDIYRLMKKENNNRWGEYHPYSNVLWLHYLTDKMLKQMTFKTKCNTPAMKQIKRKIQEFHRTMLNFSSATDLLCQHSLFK
As to the method:
as §1

A further assay addresses Clk4 (Homo sapiens, UniProt Q9HAZ1). The protocol:
as §1

The target of another assay is CK2 α1 (Homo sapiens, UniProt P68400). As to the method:
as §1

The target of the next assay is Clk3 (Homo sapiens, UniProt P49761). As to the method:
as §1

The target in a further assay is SRPK2 (Homo sapiens, UniProt P78362). The protocol:
as §1

A further assay addresses CDK5/p25 (Homo sapiens, UniProt Q00535). As to the method: as §1
Another assay concerns the target SRPK1 (Homo sapiens, UniProt Q96SB4). As to the method: as §1
In another assay the target is T2, DYRK2 (Homo sapiens, UniProt Q92630).
T2 sequence (Q92630 1-601): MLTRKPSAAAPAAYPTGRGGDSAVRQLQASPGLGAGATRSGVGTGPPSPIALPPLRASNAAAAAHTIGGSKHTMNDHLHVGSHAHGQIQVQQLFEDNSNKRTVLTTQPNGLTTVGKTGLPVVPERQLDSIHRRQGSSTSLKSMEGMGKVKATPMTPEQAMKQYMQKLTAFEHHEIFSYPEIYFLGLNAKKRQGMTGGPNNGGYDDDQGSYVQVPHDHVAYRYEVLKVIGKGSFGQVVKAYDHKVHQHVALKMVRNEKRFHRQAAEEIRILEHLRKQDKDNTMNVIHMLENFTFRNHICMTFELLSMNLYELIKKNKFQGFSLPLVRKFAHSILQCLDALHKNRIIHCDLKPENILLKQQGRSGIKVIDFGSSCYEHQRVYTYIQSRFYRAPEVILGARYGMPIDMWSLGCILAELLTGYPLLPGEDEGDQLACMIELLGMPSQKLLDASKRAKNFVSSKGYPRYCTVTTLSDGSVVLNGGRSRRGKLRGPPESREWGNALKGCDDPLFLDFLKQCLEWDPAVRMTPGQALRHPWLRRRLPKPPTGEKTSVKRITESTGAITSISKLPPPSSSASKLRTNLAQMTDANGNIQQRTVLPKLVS
The protocol:
as §1

The next assay deals with T3, STK17A (DRAK1) (Homo sapiens, UniProt Q9UEE5).
T3 sequence (Q9UEE5 1-414): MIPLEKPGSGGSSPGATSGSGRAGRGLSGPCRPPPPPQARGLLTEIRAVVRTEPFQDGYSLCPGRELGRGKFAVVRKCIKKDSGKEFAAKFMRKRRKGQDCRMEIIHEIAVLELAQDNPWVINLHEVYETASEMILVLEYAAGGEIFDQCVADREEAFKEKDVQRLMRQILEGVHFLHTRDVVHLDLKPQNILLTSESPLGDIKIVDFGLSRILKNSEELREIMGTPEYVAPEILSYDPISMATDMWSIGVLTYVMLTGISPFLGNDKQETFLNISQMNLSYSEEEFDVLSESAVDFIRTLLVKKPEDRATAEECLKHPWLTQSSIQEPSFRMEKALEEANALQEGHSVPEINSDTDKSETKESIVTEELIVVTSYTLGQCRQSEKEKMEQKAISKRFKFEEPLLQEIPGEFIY
As to the method:
as §1

Chain of PIM1 (P11309 whole entry): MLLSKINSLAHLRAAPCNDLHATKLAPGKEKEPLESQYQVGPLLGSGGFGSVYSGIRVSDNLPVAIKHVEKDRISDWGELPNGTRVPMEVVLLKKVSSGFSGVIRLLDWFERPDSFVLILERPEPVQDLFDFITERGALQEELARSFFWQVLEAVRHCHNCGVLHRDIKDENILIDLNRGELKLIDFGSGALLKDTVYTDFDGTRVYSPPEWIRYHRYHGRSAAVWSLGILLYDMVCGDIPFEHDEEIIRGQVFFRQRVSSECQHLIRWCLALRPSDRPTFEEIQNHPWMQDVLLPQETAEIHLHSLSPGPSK
Chain of Clk4 (Q9HAZ1 whole entry): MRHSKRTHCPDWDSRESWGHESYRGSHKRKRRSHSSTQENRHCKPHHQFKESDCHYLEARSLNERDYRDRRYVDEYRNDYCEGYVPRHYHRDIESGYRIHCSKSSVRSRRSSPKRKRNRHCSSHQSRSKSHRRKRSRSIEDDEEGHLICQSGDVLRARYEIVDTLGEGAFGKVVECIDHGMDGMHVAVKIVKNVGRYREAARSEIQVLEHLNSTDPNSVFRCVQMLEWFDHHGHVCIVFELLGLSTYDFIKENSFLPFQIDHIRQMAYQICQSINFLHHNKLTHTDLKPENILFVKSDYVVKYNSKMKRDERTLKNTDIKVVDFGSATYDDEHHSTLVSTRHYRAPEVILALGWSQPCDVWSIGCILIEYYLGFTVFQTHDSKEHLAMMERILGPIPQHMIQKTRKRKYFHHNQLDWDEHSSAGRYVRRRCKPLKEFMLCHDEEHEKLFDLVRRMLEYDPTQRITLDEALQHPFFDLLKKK
Chain of CDK5/p25 (Q00535 whole entry): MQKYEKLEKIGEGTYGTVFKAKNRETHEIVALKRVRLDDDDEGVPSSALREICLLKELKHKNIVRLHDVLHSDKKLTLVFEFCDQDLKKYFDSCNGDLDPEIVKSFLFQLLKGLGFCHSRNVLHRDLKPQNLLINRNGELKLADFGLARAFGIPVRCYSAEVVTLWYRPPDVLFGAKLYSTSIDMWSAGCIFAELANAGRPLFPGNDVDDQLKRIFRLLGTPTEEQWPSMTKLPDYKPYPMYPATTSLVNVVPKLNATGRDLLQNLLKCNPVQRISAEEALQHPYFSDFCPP
Chain of CDK5/p25 (Q15078 99-307 partner limits assumed): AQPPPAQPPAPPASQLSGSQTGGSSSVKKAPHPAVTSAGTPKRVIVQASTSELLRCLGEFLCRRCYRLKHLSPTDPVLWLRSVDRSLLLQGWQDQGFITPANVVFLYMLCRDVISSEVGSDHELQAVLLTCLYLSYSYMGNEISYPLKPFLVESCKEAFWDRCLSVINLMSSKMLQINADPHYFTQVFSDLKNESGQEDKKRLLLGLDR
Chain of Clk1 (P49759 whole entry): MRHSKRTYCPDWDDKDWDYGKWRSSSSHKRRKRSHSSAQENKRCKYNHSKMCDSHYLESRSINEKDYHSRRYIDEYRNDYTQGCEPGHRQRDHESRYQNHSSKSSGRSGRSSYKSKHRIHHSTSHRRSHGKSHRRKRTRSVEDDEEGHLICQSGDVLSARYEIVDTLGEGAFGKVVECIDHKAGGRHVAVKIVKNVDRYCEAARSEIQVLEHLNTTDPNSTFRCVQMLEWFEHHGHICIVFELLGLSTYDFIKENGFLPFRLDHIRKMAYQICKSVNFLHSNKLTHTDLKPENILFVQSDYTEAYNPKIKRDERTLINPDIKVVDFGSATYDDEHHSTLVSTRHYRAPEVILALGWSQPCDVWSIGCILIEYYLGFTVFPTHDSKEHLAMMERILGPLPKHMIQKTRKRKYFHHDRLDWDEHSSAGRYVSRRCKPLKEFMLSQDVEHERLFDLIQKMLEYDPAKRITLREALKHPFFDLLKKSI
Chain of CK1 γ2 (P78368 whole entry): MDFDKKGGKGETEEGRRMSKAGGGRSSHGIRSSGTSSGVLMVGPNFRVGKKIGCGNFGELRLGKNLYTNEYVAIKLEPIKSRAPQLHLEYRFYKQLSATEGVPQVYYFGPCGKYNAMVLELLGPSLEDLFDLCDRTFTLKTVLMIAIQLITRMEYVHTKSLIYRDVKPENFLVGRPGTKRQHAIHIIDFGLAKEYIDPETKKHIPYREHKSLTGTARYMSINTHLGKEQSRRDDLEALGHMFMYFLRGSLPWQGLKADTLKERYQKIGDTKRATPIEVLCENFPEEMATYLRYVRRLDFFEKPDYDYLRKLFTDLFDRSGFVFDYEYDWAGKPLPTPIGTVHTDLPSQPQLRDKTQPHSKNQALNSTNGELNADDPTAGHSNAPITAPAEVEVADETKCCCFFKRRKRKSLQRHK
Chain of SRPK2 (P78362 whole entry): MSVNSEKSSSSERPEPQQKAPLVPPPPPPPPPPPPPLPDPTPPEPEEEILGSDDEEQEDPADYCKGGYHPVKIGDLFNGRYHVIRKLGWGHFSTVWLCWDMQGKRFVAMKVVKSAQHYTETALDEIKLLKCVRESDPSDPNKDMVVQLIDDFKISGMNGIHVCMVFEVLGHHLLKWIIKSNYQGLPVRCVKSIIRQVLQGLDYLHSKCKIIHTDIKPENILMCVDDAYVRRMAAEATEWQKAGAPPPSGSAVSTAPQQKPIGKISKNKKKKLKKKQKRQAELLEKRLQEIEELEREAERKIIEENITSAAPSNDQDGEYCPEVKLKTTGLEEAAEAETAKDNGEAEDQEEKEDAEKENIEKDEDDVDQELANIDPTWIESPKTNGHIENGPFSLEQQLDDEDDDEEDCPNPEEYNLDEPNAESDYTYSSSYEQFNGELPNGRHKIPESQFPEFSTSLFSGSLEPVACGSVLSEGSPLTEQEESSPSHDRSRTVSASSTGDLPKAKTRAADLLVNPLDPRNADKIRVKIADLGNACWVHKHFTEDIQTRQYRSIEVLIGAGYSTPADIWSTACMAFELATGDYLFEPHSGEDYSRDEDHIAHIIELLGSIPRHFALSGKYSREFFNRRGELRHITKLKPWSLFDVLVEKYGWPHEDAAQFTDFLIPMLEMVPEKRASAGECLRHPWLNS
Chain of SRPK1 (Q96SB4 whole entry): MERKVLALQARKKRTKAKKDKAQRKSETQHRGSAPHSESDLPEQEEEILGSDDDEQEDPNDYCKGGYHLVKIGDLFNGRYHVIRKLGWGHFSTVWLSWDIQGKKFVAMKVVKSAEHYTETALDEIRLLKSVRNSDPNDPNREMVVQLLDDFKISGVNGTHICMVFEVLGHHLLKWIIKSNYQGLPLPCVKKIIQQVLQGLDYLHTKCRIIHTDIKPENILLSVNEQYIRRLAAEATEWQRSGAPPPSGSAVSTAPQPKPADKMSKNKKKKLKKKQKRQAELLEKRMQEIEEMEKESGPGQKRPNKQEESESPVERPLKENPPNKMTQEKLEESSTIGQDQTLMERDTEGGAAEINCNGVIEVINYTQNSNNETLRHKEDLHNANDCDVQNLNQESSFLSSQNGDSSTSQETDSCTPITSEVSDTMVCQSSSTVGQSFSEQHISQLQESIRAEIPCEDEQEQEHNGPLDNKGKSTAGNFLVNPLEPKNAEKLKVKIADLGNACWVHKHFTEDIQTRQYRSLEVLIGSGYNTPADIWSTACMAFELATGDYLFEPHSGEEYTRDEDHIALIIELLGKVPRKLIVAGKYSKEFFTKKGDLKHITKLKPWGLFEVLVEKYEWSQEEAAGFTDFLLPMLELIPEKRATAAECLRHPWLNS
Chain of Clk3 (P49761 whole entry): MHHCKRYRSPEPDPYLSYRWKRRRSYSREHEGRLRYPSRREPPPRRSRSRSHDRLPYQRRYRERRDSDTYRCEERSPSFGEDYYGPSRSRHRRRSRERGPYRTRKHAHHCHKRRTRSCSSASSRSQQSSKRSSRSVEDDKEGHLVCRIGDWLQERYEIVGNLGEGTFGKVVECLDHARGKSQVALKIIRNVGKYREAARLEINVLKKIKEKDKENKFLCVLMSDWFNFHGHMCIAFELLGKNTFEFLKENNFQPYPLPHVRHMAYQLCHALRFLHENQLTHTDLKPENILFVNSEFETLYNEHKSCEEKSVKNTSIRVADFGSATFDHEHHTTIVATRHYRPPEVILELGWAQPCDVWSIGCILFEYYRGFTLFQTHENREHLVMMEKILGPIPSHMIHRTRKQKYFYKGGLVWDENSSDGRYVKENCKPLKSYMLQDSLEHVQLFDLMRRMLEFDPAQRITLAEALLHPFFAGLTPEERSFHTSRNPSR
Chain of CK2 α1 (P68400 whole entry): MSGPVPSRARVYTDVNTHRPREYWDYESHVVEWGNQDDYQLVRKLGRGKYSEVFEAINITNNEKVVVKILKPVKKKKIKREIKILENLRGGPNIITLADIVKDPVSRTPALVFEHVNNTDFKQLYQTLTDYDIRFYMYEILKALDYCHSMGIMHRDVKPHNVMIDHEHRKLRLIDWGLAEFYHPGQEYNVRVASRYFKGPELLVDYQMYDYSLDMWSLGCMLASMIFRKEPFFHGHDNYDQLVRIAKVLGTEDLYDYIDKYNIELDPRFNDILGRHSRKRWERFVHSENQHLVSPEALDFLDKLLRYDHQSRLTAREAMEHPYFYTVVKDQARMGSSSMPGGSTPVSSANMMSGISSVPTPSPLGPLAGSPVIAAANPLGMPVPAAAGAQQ

Usually inhibition stands for the change of the read-out against control, counted positive when it falls. Read a high inhibition as a response far below the control. On to `COc1ccc2sc(C(=O)N(C)Cc3cc(F)cc(F)c3)cc2c1` [Compound 10b, N-Methyl-N-(3,5-difluorobenzyl)-5-methoxybenzothiophene-2-carboxamide], for which the inhibition at 1 µM against PIM1 came to 6%; against MLCK2, 3%; at Clk1 it was 80%; on CK1 γ2, 2%; on Haspin, 0%; against Clk4, 100%. The inhibition at 1 µM against CK2 α1 was 5%; against Clk3 it was 48%; at SRPK2 it was 3%; at CDK5/p25, 3%; against SRPK1 it was 4%; at DYRK2, 19%. The inhibition at 1 µM at STK17A (DRAK1) stood at 25%.
